Patent US20080269323A1, “USE OF 4-(NITROOXY)-BUTYL-(S)-2-(6-METHOXY-2-NAPHTHYL)-PROPANOATE FOR TREATING PAIN AND INFLAMMATION” (NICOX S.A., priority 2007, published 2008)

Experiments:
PGE2 = test: Urinary PGE2 production levels; format: in vivo, rat; settings: rats, oral, two weeks; naproxcinod 14.5 mg/kg, naproxen 10 mg/kg
[1] = Urine flow rate during water-load; format: in vivo, rat; settings: water-load (90 min) compared to baseline; rats, oral, two weeks
Experimental: After obtaining a set of baseline images, hypotonic glucose-saline (0.25% NaCl, 0.5% glucose) at 1.5 ml/100 g body weight/hr was infused intravenously via the femoral catheter for 2 hours to induce the water-diuresis.

In the case of COc1ccc2cc([C@H](C)C(=O)OCCCCO[N+](=O)[O-])ccc2c1 [Naproxcinod, 4-(Nitrooxy)-butyl-(S)-2-(6-methoxy-2-naphthyl)-propanoate], the “Urinary PGE2 production levels (in words)” value (PGE2) is reported as “reduced” and the “Increase in urine flow during water-load (in words)” value [1] is reported as “substantially less increase”.
In the case of COc1ccc2cc([C@H](C)C(=O)O)ccc2c1 [Naproxen, naproxen], the “Urinary PGE2 production levels (in words)” value (PGE2) is reported as “reduced” and the “Increase in urine flow during water-load (in words)” value [1] is reported as “substantially less increase”.
